From patent US20250367302A1, “SMALL MOLECULE DRUG-OLIGONUCLEOTIDE CONJUGATE AND USE THEREOF” (SHANGHAI JIAO TONG UNIVERSITY, priority 2022, published 2025) come the findings set out here.

In data set [1] the test system is mice with xerophthalmia (0.2% benzalkonium chloride). As to the kind of experiment: Benzalkonium chloride xerophthalmia mouse model: sodium fluorescein staining and phenol red cotton thread tear test. It counts as in vivo, mouse (C57BL/6). Here is the method: The ocular xerophthalmia model was established in 6-8 weeks old mice (C57BL/6, Suzhou Xishan Biotechnology Co., Ltd.) with 0.2% benzalkonium chloride. 5 μL of 0.2% benzalkonium chloride was dripped into each eye of the mice, once in the morning and once in the evening every day, for two consecutive weeks. After successful modeling, the hospital-prepared CsA eye drops (400 µM CsA, referred to as hospital-prepared CsA eye drops or CsA eye drops, provided by the Eye, Ear, Nose and Throat Hospital Affiliated to Fudan University School of Medicine, Shanghai) and CsA-ASONFKBIZ-m (400 µM CsA) were used for eye drops treatment, 5 μL per eye, once in the morning and once in the evening. Sodium fluorescein staining and phenol red cotton thread tear secretion test were conducted on days 0, 7, and 14 of treatment to evaluate the therapeutic effect.
(§1) The ocular xerophthalmia model was established in 6-8 weeks old mice (C57BL/6, Suzhou Xishan Biotechnology Co., Ltd.) with 0.2% benzalkonium chloride. 5 μL of 0.2% benzalkonium chloride was dripped into each eye of the mice, once in the morning and once in the evening every day, for two consecutive weeks. After successful modeling, the hospital-prepared CsA eye drops (400 μM CsA, provided by the Eye, Ear, Nose and Throat Hospital Affiliated to Fudan University School of Medicine, Shanghai) and 2CsA-ASONFKBIZ-m (400 µM CsA) were used for eye drops treatment, 5 μL per eye, once in the morning and once in the evening. Sodium fluorescein staining and phenol red cotton thread tear secretion test were conducted on days 0, 7, and 14 of treatment to evaluate the therapeutic effect.
as §1, with “µM” for “μM”, “provided” for “provided by”, “3CsA-ASONFKBIZ-m nanomicelles (133 µM ASO concentration, 400” for “2CsA-ASONFKBIZ-m (400”
as §1, with “CsA3-ASONFKBIZ-m nanomicelles” for “2CsA-ASONFKBIZ-m”, “0” for “0, 7,”
The ocular xerophthalmia model was established in 6-8 weeks old mice (C57BL/6, Suzhou Xishan Biotechnology Co., Ltd.) using 0.2% benzalkonium chloride. 5 μL of 0.2% benzalkonium chloride was dripped into each eye of the mouse, once in the morning and once in the evening every day for two weeks. After successful modeling, the hospital-prepared CsA eye drops (400 µM CsA, provided by the Eye, Ear, Nose and Throat Hospital Affiliated to Fudan University School of Medicine, Shanghai) and CsA-siRNANFKBIZ-m (400 µM CsA), 2CsA-siRNANFKBIZ-m nanomicelles (400 µM CsA), 3CsA-siRNANFKBIZ-m nanomicelles (400 µM CsA) were used for eye drops treatment, 5 μL per eye, once in the morning and once in the evening. […]

In data set [2] the test system is psoriasis-like model mice (5% imiquimod cream). As to the kind of experiment: Imiquimod psoriasis-like mouse model, smear administration in carbomer gel. It counts as in vivo. Particulars: nanomicelles in carbomer gel applied to skin lesions, after 7 d of treatment. The procedure:
The psoriasis model on the back and ears of 6-8 weeks old mice (C57BL/6, Suzhou Xishan Biotechnology Co., Ltd.) was established with 5% imiquimod cream. After removing the hair on the back of the mice, 60 mg of 5% imiquimod cream was applied to the back and ears of each mouse for 6 consecutive days. […] CsA3-ASONFKBIZ-m nanomicelles were mixed with carbomer gel and applied to the skin lesions for treatment. The carbomer gel without CsA3-ASONFKBIZ-m nanomicelles was used as a control group (control) for efficacy testing. On the 7 d of treatment, the thickness of the skin at the back lesions and the thickness of the ears were measured, and the erythema, scaling, skin thickening, and severity of the psoriasis lesions were scored. The results were shown in FIG. 54, FIGS. 55A-55B, and FIGS. 56A-56D.
The psoriasis model on the back and ears of 6-8 weeks old mice was established with 5% imiquimod cream. After removing the hair on the back of the mice, 60 mg of 5% imiquimod cream was applied to the back and ears of each mouse for 6 consecutive days. […] 10TA-ASONFKBIZ-m nanomicelles were mixed with carbomer gel and applied to the skin lesions for treatment. […] On the 7 d of treatment, the thickness of the skin at the back lesions and the thickness of the ears were measured, and the erythema, scaling, skin thickening, and severity of the psoriasis lesions were scored. […]

The mark [3] stands for this setting: eye drops 5 μL per eye twice daily, 400 μM CsA (10RAP: 400 μM rapamycin), day 14.
[4] abbreviates: xerophthalmia mice, baseline of the treatment group.

On to “CsA3-ASONFKBIZ-m: CsA trimer on tripropargyl linker at 3′ end of ASO targeting mouse NFKBIZ (SEQ ID NO: 8) (AATACTGGTACATTGACGCC; 3'-NHS ASO with tripropargyl linker carrying three cyclosporin A, chemistry not given here, further chemistry not given here)”, for which, in data set [1] (setting [3]), the “phenol red cotton thread infiltration length (tear secretion) after 14 d of treatment” value is “about 3.5 mm” and the “sodium fluorescein staining eye score after 14 d of treatment” value is “about 6 points”. In data set [1] (setting [4]), the “phenol red cotton thread infiltration length (tear secretion), day 0 (before treatment)” value is 1.5 mm and the “sodium fluorescein staining eye score, day 0 (before treatment)” value was 10 points. For the same substance, in data set [2], the “erythema and scaling of the skin lesions versus control group” value is “significantly reduced”; the “skin thickness of the lesions (and ears) versus control group” value is “reduced”.
